Test results reported in patent publication US20250214925A1, “CATIONIC LIPID, LIPOSOME, LIPID NANOPARTICLE, AND USE” (CARCELL BIOPHARMA LTD., priority 2022, published 2025).

Columns and labels:
[1] = LNP size and PDI by dynamic laser light scattering; assay type: physicochemical; conditions: LNP: 50% cationic lipid, 38.5% cholesterol, 10% DSPC, 1.5% DMG-PEG2000; Ffluc mRNA
Protocol: (§1) 1. The cationic lipid (50 mg/mL) prepared in the above examples of the present disclosure, cholesterol (20 mg/mL), DSPC (20 mg/mL) and DMG-PEG2000 (20 mg/mL) were dissolved in ethanol, and the solution was placed in a 55° C. metal thermostatic bath as needed to aid dissolution, to obtain a lipid mixture with the following molar composition: 1.5% DMG-PEG2000, 50% cationic lipid, 38.5% cholesterol, and 10% DSPC.
(§2) 2. The mRNA encoding Ffluc was diluted with 10 mM pH 4.0 citrate buffer to prepare a 0.2 mg/mL mRNA solution.
(§3) 3. The lipid mixture prepared in step 1 was mixed with the mRNA solution prepared in step 2 using a syringe pump with a tee at a total flow rate of 40 mL/min.
(§4) 4. The LNP mixture was collected after the three-way mixing and placed in a dialysis bag with a molecular weight cut-off of 100 KDa.
(§5) 5. The LNP mixture was dialyzed overnight against 50 mM Tris-buffered saline, pH 7.4.
(§6) 6. Sieving, and subsequent measurement of the sieved LNP to measure the PDI of the LNP by dynamic laser light scattering; to measure the mRNA encapsulation efficiency and concentration by Ribogreen assay; and to measure the pKa by TNS-α assay.

[2] = mRNA encapsulation efficiency of LNP by Ribogreen assay; assay type: physicochemical; conditions: LNP: 50% cationic lipid, 38.5% cholesterol, 10% DSPC, 1.5% DMG-PEG2000; Ffluc mRNA
Protocol: as §1, §2, §3, §4, §5, §6

mice = assay: In vivo delivery of Ffluc mRNA LNP in mice, intravenous administration, luminescence relative to MC3; design: species or system mice (female Balb/C); conditions: fold change in luminescence intensity relative to MC3; 0.06 mg/kg tail vein; 6 h after injection
Protocol: The prepared encapsulation solution was applied to mice in the following manner, and its delivery efficiency in mice was tested. Among them, DLin-MC3-DMA (MC3) was a cationic liposome for delivering small nucleic acids that was approved by the FDA for marketing in 2018, which has high nucleic acid drug delivery efficiency and biosafety, and was usually used as the industry gold standard in the screening process of cationic lipids. In the evaluation of mice experiments, the ratio of nucleic acid delivery efficiency normalized to MC3 was greater than 0.1, which was considered to be a cationic lipid with high delivery efficiency.
1. The LNP solution was diluted with 50 mM TBS, pH 7.4 to a concentration of 0.1 mg/mL mRNA.
2. The mice involved in this study were female Balb/C, weighing 18-22 g, 6-8 weeks old, with 5 mice in each group.
3. The dosing solution was kept at 4° C. prior to injection.
4. Each mice received 0.06 mg/kg via tail vein injection.
5. The mice were injected intraperitoneally with 200 μL of 1.5 mg/mL D-luciferin solution 6 h after injection.
6. The in vivo luminescence images of the mice were obtained using the IVIS system (Aniview).
7. The luminescence intensity of each mice was measured using Aniview software.
8. MC3 lipid nanoparticles were used as a positive control. The in vivo efficacy of each cationic lipid tested was recorded as the fold change in luminescence intensity relative to MC3 (ratio normalized to MC3).

| Compound | PDI [1] | Size (nm) [1] [nm] | Encapsulation Rate [2] [%] | In Vivo Efficacy Normalized To Mc3 In Mice (Intravenous Injection) (mice) |
| --- | --- | --- | --- | --- |
| CCCCC/C=C\C/C=C\CCCCCCCC(=O)OCC(COC(=O)/C=C(/CCCCCCCC)CCCCCCCCCC)COC(=O)OCC1CCN(CC)CC1 (centres unmarked) [CPL-453] | 0.0653 | 81.2 | 98 | 0.82 |
| CCCCCCCC/C(=C/C(=O)OCCCCCCN(CCCO)CCCCCCOC(=O)/C=C(\CCCCC)CCCCCCCC)CCCCC [CPL-047, ((3-hydroxypropyl)azanediyl)bis(hexane-6,1-diyl) (2E,2′E)-bis(3-pentylundec-2-enoate)] | 0.25 | 114.7 | 96 | 1.59 |
| CCCCC/C=C\C/C=C\CCCCCCCC(=O)OCC(COC(=O)C=C(CCCCCCCCCC)CCCCCCCCCC)COC(=O)OCCCN(C)C (centres unmarked) [CPL-234, 3-((3-decyltridec-2-enoyl)oxy)-2-((((3-(dimethylamino)propoxy)carbonyl)oxy)methyl)propyl(9Z,12Z)-octadeca-9,12-dienoate] | – | – | – | 0.96 |
| CCCCC/C=C\C/C=C\CCCCCCCC(=O)OCC(COC(=O)/C=C(/CCCCCCCC)CCCCCCCCCC)COC(=O)OCCCN1CCN(C)CC1 (centres unmarked) [CPL-409, 3-(((3-(4-methylpiperazin-1-yl)propoxy)carbonyl)oxy)-2-((((Z)-3-octyltridec-2-enoyl)oxy)methyl)propyl(9Z 12Z)-octadeca-9,12-dienoate] | 0.1474 | 94.97 | 96 | – |
| CCCCCCCCCC/C(=C/C(=O)OCCCCCN(CCCO)CCCCCOC(=O)/C=C(\CCCC)CCCCCCCCCC)CCC [CPL-1092] | – | – | – | 0.83 |
| CCCCC/C=C\C/C=C\CCCCCCCC(=O)OCC(COC(=O)/C=C(\CCCCCCC)CCCCCCCC)COC(=O)OCCN(C)C (centres unmarked) [CPL-208, 3-(((2-(dimethylamino)ethoxy)carbonyl)oxy)-2-((((E)-3-heptylundec-2-enoyl)oxy)methyl)propyl(9Z,12Z)-octadeca-9,12-dienoate] | 0.2382 | 96.3 | 95 | – |
| CCCCC/C=C\C/C=C\CCCCCCCC(=O)OCC(COC(=O)/C=C(\CCCCC)CCCCCC)COC(=O)OCCCN1CCN(C)CC1 (centres unmarked) [CPL-398, 3-(((3-(4-methylpiperazin-1-yl)propoxy)carbonyl)oxy)-2-((((E)-3-pentylnonan-2-enoyl)oxy)methyl)propyl(9Z,12Z)-octadeca-9,12-dienoate] | 0.0778 | 115.7 | 97 | – |
| 3-((((2-(dimethylamino)ethoxy)carbonyl)oxy)-2-((((E)-3-hexylundec-2-enoyl)oxy)methyl)propyl(97,127)-octadeca-9,12-dienoate [CPL-203] | – | – | – | 0.23 |
| CCCCC/C=C\C/C=C\CCCCCCCC(=O)OCC(COC(=O)/C=C(\CCCC)CCCCC)COC(=O)OCC(C)(C)CN(C)C (centres unmarked) [CPL-309, 3-(((E)-3-butyloct-2-enoyl)oxy)-2-((((3-(dimethylamino)-2,2-dimethylpropoxy)carbonyl)oxy)methyl)propyl(9Z,12Z)-octadeca-9,12-dienoate] | 0.0937 | 76.44 | 93 | – |
| CCCCC/C=C\C/C=C\CCCCCCCC(=O)OCC(COC(=O)C=C(CCCCCCCCCC)CCCCCCCCCC)COC(=O)OCC(C)(C)CN(C)C (centres unmarked) [CPL-322, 3-((3-decyltridec-2-enoyl)oxy)-2-((((3-(dimethylamino)-2,2-dimethylpropoxy)carbonyl)oxy)methyl)propyl(9Z,12Z)-octadeca-9,12-dienoate] | 0.1302 | 96.21 | 94 | – |

Second part, led by results:

| PDI [1] | Size (nm) [1] [nm] | Encapsulation Rate [2] [%] | Compound | In Vivo Efficacy Normalized To Mc3 In Mice (Intravenous Injection) (mice) |
| --- | --- | --- | --- | --- |
| 0.1723 | 77.48 | 95 | CCCCCCCC/C(=C/C(=O)OCCCCCN(CCCO)CCCCCOC(=O)/C=C(\CCCC)CCCCCCCC)CCCC [CPL-043, ((3-hydroxypropyl)azanediyl)bis(pentane-5,1-diyl)(2E,2′E)-bis(3-butylundec-2-enoate)] | 1.58 |
| 0.1812 | 78.29 | 97 | CCCCC/C=C\C/C=C\CCCCCCCC(=O)OCC(COC(=O)/C=C(\CCCCCCC)CCCCCCCC)COC(=O)OCCCN(CC)CC (centres unmarked) [CPL-274, 3-(((3-(diethylamino)propoxy)carbonyl)oxy)-2-((((E)-3-heptylundec-2-enoyl)oxy)methyl)propyl(9Z,12Z)-octadeca-9,12-dienoate] | 0.37 |
| 0.2607 | 119.6 | 97 | CCCCC/C=C\C/C=C\CCCCCCCC(=O)OCC(COC(=O)/C=C(\CCC)CCCCCC)COC(=O)OCCC1CCN(C)CC1 (centres unmarked) [CPL-280, 3-(((2-(1-methylpiperidin-4-yl)ethoxy)carbonyl)oxy)-2-((((E)-3-propylnon-2-enoyl)oxy)methyl)propyl(9Z,12Z)-octadeca-9,12-dienoate] | – |
| 0.0453 | 82.01 | 96 | CCCCC/C=C\C/C=C\CCCCCCCC(=O)OCC(COC(=O)/C=C(\CCCC)CCCCC)COC(=O)OCCCN(C)C (centres unmarked) [CPL-221, 3-(((E)-3-butyloct-2-enoyl)oxy)-2-((((3-(dimethylamino)propoxy)carbonyl)oxy)methyl)propyl(9Z,12Z)-octadeca-9,12-dienoate] | 0.44 |
| 0.0562 | 98.86 | 97 | CCCCC/C=C\C/C=C\CCCCCCCC(=O)OCC(COC(=O)/C=C(\CCCCCCC)CCCCCCCCCC)COC(=O)OCCCN1CCN(C)CC1 (centres unmarked) [CPL-407, 3-(((E)-3-heptyltridec-2-enoyl)oxy)-2-((((3-(4-methylpiperazin-1-yl)propoxy)carbonyl)oxy)methyl)propyl(9Z,12Z)-octadeca-9,12-dienoate] | 0.21 |
| 0.2202 | 97.61 | 94 | CCCCCCCC/C(=C/C(=O)OCCCCCN(CCCO)CCCCCOC(=O)/C=C(\CCC)CCCCCCCC)CCC [CPL-039, ((3-hydroxypropyl)azanediyl)bis(pentane-5,1-diyl)(2E,2′E)-bis(3-propylundec-2-enoate)] | 1.44 |
| 0.15 | 78.4 | 98 | CCCCCCCCCC/C(=C/C(=O)OCCCCCN(CCCO)CCCCCOC(=O)/C=C(\CCCC)CCCCCCCCCC)CCCC [CPL-044, ((3-hydroxypropyl)azanediyl)bis(pentane-5,1-diyl)(2E,2′E)-bis(3-butyltridec-2-enoate)] | 1.26 |
| 0.1387 | 75.82 | 93 | CCCCC/C=C\C/C=C\CCCCCCCC(=O)OCC(COC(=O)/C=C(\CCCC)CCCCCCC)COC(=O)OCC(C)(C)CN(C)C (centres unmarked) [CPL-316, 3-(((E)-3-butyldec-2-enoyl)oxy)-2-((((3-(dimethylamino)-2,2-dimethylpropoxy)carbonyl)oxy)methyl)propyl(9Z,12Z)-octadeca-9,12-dienoate] | – |
| 0.1615 | 105.5 | 98 | CCCCC/C=C\C/C=C\CCCCCCCC(=O)OCC(COC(=O)/C=C(\CCCCC)CCCCCCCCCC)COC(=O)OCCC1CCN(C)CC1 (centres unmarked) [CPL-290] | – |
| 0.1371 | 83 | 97 | CCCCC/C=C\C/C=C\CCCCCCCC(=O)OCC(COC(=O)/C=C(\CCCCC)CCCCCCCC)COC(=O)OCCC1CCN(C)CC1 (centres unmarked) [CPL-289, 3-(((2-(1-methylpiperidin-4-yl)ethoxy)carbonyl)oxy)-2-((((E)-3-pentylundec-2-enoyl)oxy)methyl)propyl(9Z,12Z)-octadeca-9,12-dienoate] | – |
| 0.1065 | 69.76 | 85 | CCCCCC/C(=C/C(=O)OCCCCCCCCN(CCO)CCCCCCCCOC(=O)/C=C(\CCCC)CCCCCC)CCCC [CPL-455-01, ((2-hydroxyethyl)azanediyl)bis(octane-8,1-diyl) (2E,2′E)-bis(3-butylnon-2-enoate)] | – |
